Test results reported in patent US12600724B2, “Indole alkaloid and preparation method and use thereof” (NANJING UNIVERSITY OF CHINESE MEDICINE, priority 2022, dated 2026).

What was measured:
[1] = system: type-2 diabetes model db/db mice; assay: Motor nerve conduction velocity, type-2 diabetes db/db mice; assay type: in vivo, BKS db/db mice; details: for Motor nerve conduction velocity: db/db mice, S26 46.8 mg/kg/day intragastric, Mean ± SD, n = 3
Method: (§1) Type-2 diabetes mice: male 18-week-old BKS db/db mice were purchased from Jiangsu Gempharmatech Biotechnology Co., Ltd. One week after adaptive feeding, the mice were divided into a control group (db/m mice), a model group (db/db mice) and a S26 administration group (46.8 mg/kg/day) respectively according to body weight and blood sugar, and administrated intragastrically for four weeks continuously. Before administration, 2 weeks and 4 weeks after administration, motor nerve conduction velocities (MNCV) of left and right sides of each group of mice were detected, and a mean value of the velocities of two sides was taken as a nerve conduction velocity of each mouse. Specific experimental method: (1) electrode placement: a stimulating electrode was placed on a nerve trunk, a recording electrode was placed on a muscle belly, and a reference electrode was placed on a muscle tendon; and a ground electrode was placed between the stimulating electrode and the recording electrode. (2) Calculation of motor nerve conduction velocity: distal and proximal ends of the nerve trunk were stimulated in a super-strong manner, a compound muscle action potential could be recorded twice on a muscle innervated by the nerve, different latent periods of the compound muscle action potentials were measured, and a distance between the distal and proximal ends was divided by a difference between the two latent periods, so as to obtain the nerve conduction velocity. Computational formula: nerve conduction velocity (m/s)=distance between two ends (cm)×10/difference between two latent periods (ms).

[2] = system: STZ-induced type-1 diabetes model mice; assay: Motor nerve conduction velocity, type-1 diabetic peripheral neuropathy mice; assay type: in vivo, C57BL/6J mice; details: for Motor nerve conduction velocity: type-1 mice, S26 46.8 mg/kg/day intragastric, Mean ± SD, n = 3
Method: as §1, with “Type-1” for “Type-2”, “8-week-old C57BL/6J” for “18-week-old BKS db/db”, “Beijing Vital River Laboratory Animal Technology” for “Jiangsu Gempharmatech Biotechnology”, “feeding, STZ (150 mg/kg) was injected intraperitoneally, and one week later, tail vein blood collection was carried out for blood sugar detection, and the mice with random blood sugar greater than 16 mmol/L were selected. Six weeks after STZ injection,” for “feeding,”, “(non-diabetic” for “(db/m”, “(DPN” for “(db/db”

[3] = system: diabetic foot ulcer rat model (STZ-induced diabetic rat); assay: Foot ulcer wound area of diabetic foot ulcer model rat; assay type: in vivo, Sprague Dawley rats; details: for Area of foot ulcer wound: DFU rats, S26 46.8 mg/kg/day intragastric, Mean ± SD, n = 6
Method: Diabetic foot ulcer (DFU) was the most common manifestation of diabetic foot, and was also a main cause of amputation of a diabetic patient. In this experiment, a certain area of wound was created on a foot back of the diabetic rat at one time to form a diabetic foot ulcer model, and then the compound S26 was administrated for treatment. The influence of the vinpocetine derivative S26 on the healing of the diabetic foot ulcer was evaluated by taking a photo of the wound and quantifying an area of the wound. […] Four weeks after STZ injection, an inhalation anesthesia machine was used to carry out isoflurane inhalation to induce anesthesia, and a complete round skin wound was created on a rear foot back of the diabetic rat through a disposable 5 mm skin biopsy punch and a Westcott scissor. After the establishment of the diabetic foot ulcer rat model, the rats were divided into a control group (non-diabetic rats), a model group (DFU rats) and a S26 administration group (46.8 mg/kg/day) respectively according to blood sugar and body weight, and administrated intragastrically for four weeks continuously. The foot ulcer wound of each rat was observed on day 0, day 3, day 7, day 14, day 21 and day 28 after administration, and photographed with a camera, and then the wound area was quantified by Image J software through scale conversion.

[4] = system: STZ-induced type-1 diabetes model mice; assay: 50% mechanical pain threshold (Von frey), type-1 diabetic peripheral neuropathy mice; assay type: in vivo, C57BL/6J mice; details: type-1 mice, S26 46.8 mg/kg/day intragastric, Mean ± SD, n = 6
Method: Type-1 diabetes mice: male 8-week-old C57BL/6J mice were purchased from Beijing Vital River Laboratory Animal Technology Co., Ltd. One week after adaptive feeding, STZ (150 mg/kg) was injected intraperitoneally, and one week later, tail vein blood collection was carried out for blood sugar detection, and the mice with random blood sugar greater than 16 mmol/L were selected. Six weeks after STZ injection, the mice were divided into a control group (non-diabetic mice), a model group (DPN mice) and a S26 administration group (46.8 mg/kg/day) respectively according to body weight and blood sugar, and administrated intragastrically for four weeks continuously. This experiment was based on a principle that claws of rodents would have a withdrawal reflex under mechanical stimulation. A Von frey tactile measuring set was purchased from Ugo Basile Company, and Von frey filaments could provide 0.008 g to 300 g of stimulating force, wherein a thickness of the filaments determined a magnitude of the stimulating force. Specific experimental method: filaments with proper thicknesses were selected to vertically stimulate a skin, and the stimulating force was adjusted by replacing the filaments, until the filaments were bent. One mouse was tested for 6 times to determine a threshold, and a 50% mechanical pain threshold of the mouse was calculated according to 50% threshold=(10^(Xf+k δ))/10000, which was detected weekly before and after administration respectively.

Question: Which results are given for `CC[C@@]12C=C(C(=O)NCC(=O)OCCOCCOCCOCCO)n3c4c(c5ccccc53)CCN(CCC1)[C@H]42` [Compound S26]?
Answer: Motor nerve conduction velocity ([1]; week 0 of administration): 20.45 ± 3.94^ m/s; Motor nerve conduction velocity ([1]; week 2 of administration): 29.70 ± 4.27 m/s; Motor nerve conduction velocity ([1]; week 4 of administration): 36.57 ± 3.34 m/s; Motor nerve conduction velocity and anesthesia symptom (in words) ([1]; type-2 diabetes mouse, Tables 5 to 7): obviously improve; Motor nerve conduction velocity and anesthesia symptom (in words) ([2]; type-1 diabetes peripheral neuropathy mouse, Tables 2 to 4): obviously improve; Motor nerve conduction velocity ([2]; week 0 of administration): 20.37 ± 3.21^ m/s; Motor nerve conduction velocity ([2]; week 2 of administration): 27.48 ± 2.97 m/s; Motor nerve conduction velocity ([2]; week 4 of administration): 31.11 ± 3.85 m/s; Area of foot ulcer wound ([3]; day 0 of administration): 25.02 ± 2.85 mm^2; Area of foot ulcer wound ([3]; day 3 of administration): 22.57 ± 2.76 mm^2; Area of foot ulcer wound ([3]; day 7 of administration): 11.83 ± 3.73^# mm^2; Area of foot ulcer wound ([3]; day 14 of administration): 10.50 ± 2.01^## mm^2; Area of foot ulcer wound ([3]; day 21 of administration): 8.78 ± 1.35^## mm^2; Area of foot ulcer wound ([3]; day 28 of administration): 6.02 ± 1.67^# mm^2; Area of the foot ulcer wound (in words, FIG. 2) ([3]; diabetic foot rat): obviously reduce; 50% mechanical pain threshold ([4]; week 0 of administration): 1.51 ± 0.22^ g; 50% mechanical pain threshold ([4]; week 1 of administration): 1.06 ± 0.34 g; 50% mechanical pain threshold ([4]; week 2 of administration): 0.92 ± 0.24 g; 50% mechanical pain threshold ([4]; week 3 of administration): 0.87 ± 0.15 g; 50% mechanical pain threshold ([4]; week 4 of administration): 0.85 ± 0.23 g
